Literature values as cited in paper PMC3466449 (Scientific Reports, 2012).
Non-standard residues stand in square brackets, D forms with d. No end group written: not given here. pGlu = O=C1CC[C@@H](C(=O)O)N1

Tested on: C-domain of sACE
Details: C-domain over N-domain of sACE

Row | Molecule | C-domain selectivity
1 | [pGlu]GLPPRPKIPP [BPPb, bradykinin potentiating peptide b] | about 260 fold
2 | O=C(N[C@@H](Cc1ccccc1)P(=O)(O)C1CCCC1C(=O)N[C@@H](Cc1c[nH]c2ccccc12)C(=O)O)OCc1ccccc1 (some centres unmarked) [RXPA380] | approximately 3000 fold
